How the values were obtained:
[1] = target: human DNA polymerase beta (Homo sapiens (Human), UniProt P06746); assay: Human DNA polymerase inhibition assay, pol beta; settings: read-out: Human DNA pol β (IC50 uM)
[2] = target: human DNA polymerase gamma (Homo sapiens (Human), UniProt P54098); assay: Human DNA polymerase inhibition assay, pol gamma
[3] = target: human DNA polymerase alpha (Homo sapiens (Human), UniProt P09884); assay: Human DNA polymerase inhibition assay, pol alpha; settings: read-out: Human DNA pol α (IC50 uM)
human DNA polymerase alpha, sequence (P09884 whole entry): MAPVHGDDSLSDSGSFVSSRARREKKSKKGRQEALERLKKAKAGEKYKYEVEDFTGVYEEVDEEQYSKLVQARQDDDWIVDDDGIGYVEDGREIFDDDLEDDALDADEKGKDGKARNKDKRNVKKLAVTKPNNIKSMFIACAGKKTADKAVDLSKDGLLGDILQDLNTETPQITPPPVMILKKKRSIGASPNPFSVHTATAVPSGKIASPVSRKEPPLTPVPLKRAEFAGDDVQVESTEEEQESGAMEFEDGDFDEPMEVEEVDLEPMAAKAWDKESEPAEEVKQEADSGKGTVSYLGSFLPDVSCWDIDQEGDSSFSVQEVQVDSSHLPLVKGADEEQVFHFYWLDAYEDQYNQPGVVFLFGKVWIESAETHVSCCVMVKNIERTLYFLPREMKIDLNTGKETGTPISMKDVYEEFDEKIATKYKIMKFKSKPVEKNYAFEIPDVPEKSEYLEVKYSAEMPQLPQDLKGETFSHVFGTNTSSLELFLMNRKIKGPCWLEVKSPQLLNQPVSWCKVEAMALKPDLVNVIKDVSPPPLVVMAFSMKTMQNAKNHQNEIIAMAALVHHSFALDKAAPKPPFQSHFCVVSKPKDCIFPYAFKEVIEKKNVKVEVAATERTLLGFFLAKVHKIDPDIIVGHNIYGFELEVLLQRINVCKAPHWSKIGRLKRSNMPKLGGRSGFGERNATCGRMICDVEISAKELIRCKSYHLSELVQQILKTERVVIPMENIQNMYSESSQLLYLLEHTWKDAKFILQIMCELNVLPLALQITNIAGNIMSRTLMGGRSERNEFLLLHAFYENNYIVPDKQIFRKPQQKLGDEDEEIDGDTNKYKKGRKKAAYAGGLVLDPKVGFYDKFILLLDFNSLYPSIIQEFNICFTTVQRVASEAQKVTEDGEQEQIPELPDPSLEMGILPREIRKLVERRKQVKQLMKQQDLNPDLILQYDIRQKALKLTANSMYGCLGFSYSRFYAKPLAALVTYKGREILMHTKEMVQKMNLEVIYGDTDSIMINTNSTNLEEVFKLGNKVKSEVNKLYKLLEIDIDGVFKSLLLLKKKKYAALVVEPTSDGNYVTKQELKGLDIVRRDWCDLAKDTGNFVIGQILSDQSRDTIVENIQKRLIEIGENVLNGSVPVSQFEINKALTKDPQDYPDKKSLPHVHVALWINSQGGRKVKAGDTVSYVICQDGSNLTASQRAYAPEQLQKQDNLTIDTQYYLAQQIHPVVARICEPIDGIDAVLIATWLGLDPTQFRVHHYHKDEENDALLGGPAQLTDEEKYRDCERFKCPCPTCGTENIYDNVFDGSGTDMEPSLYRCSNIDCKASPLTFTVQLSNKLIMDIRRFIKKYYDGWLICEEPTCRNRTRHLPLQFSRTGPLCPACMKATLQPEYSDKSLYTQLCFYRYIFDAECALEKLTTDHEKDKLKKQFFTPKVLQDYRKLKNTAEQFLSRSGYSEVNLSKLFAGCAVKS

in vitro = settings: human
COXV B3 = assay: CPE reduction assay, COXV B3; type: cell-based
EV68 = assay: CPE reduction assay, EV68; type: cell-based; settings: EV68, strain US/KY/14-18953, RD cells
[4] = Cytotoxicity in MRC-5 cells (enterovirus assays); type: cell-based; settings: human, line of EV71 H
EV71 = assay: CPE reduction assay, EV71; type: cell-based; settings: Enterovirus A
COXV B4 = assay: CPE reduction assay, COXV B4; type: cell-based; settings: Huh-7; COXV B4, strain JVB, Huh7 cells
COXV A7 = assay: CPE reduction assay, COXV A7; type: cell-based; settings: Huh-7; COXV A7, strain WP Parker, Huh7 cells
[5] = Cytotoxicity in RD cells (enterovirus assays); type: cell-based; settings: human
Huh7 = assay: Cytotoxicity in Huh7 cells (enterovirus assays)
COXV B2 = assay: CPE reduction assay, COXV B2; type: cell-based; settings: COXV B2, strain Ohio 1, Huh7 cells
HeLa = assay: Cytotoxicity in HeLa cells (enterovirus assays); type: cell-based; settings: line of HRV 1059
[6] = Cytotoxicity in HeLa cells (enterovirus assays); type: cell-based; settings: human, line of HRV 26
HRV = assay: CPE reduction assay, HRV; type: cell-based; settings: HeLa
COXV A18 = assay: CPE reduction assay, COXV A18; type: cell-based; settings: Huh-7; COXV A18, strain G13, Huh7 cells
COXV B1 = assay: CPE reduction assay, COXV B1; type: cell-based; settings: Huh-7; COXV B1, strain Conn5, Huh7 cells
EV70 = assay: CPE reduction assay, EV70; type: cell-based; settings: Huh-7; EV70, strain J670/71, Huh7 cells
CV-B3 = settings: read-out: EC50 against CV-B3; cited from earlier work
[7] = Cytotoxicity in HepG2 cells (XTT); type: cell-based; settings: human, beside HBV
Protocol: The 50% cytotoxic concentration for the test materials are derived by measuring the reduction of the tetrazolium dye XTT in the treated tissue culture plates. XTT is metabolized by the mitochondrial enzyme NADPH oxidase to a soluble formazan product in metabolically active cells. XTT solution was prepared daily as a stock of 1 mg/mL in PBS. Phenazine methosulfate (PMS) stock solution was prepared at 0.15 mg/mL in PBS and stored in the dark at −20° C. XTT/PMS solution was prepared immediately before use by adding 40 µL of PMS per 1 mL of XTT solution. Fifty microliters of XTT/PMS was added to each well of the plate and the plate incubated for 2-4 hours at 37° C. The 2-4 hour incubation has been empirically determined to be within linear response range for XTT dye reduction with the indicated numbers of cells for each assay. Adhesive plate sealers were used in place of the lids, the sealed plate was inverted several times to mix the soluble formazan product and the plate was read at 450 nm (650 nm reference wavelength) with a Molecular Devices SpectraMax Plus 384 spectrophotometer. Data were collected by Softmax 4.6 software and imported into an Excel spreadsheet for analysis.

HIV = HIV infected PBMC assay; type: cell-based; settings: Human immunodeficiency virus 1, PBMC
Protocol: Fresh human peripheral blood mononuclear cells (PBMCs) were obtained from a commercial source (Biological Specialty) and were determined to be seronegative for HIV and HBV. Depending on the volume of donor blood received, the leukophoresed blood cells were washed several times with PBS. After washing, the leukophoresed blood was diluted 1:1 with Dulbecco's phosphate buffered saline (PBS) and layered over 15 mL of Ficoll-Hypaque density gradient in a 50 ml conical centrifuge tube. These tubes were centrifuged for 30 min at 600 g. Banded PBMCs were gently aspirated from the resulting interface and washed three times with PBS. After the final wash, cell number was determined by Trypan Blue dye exclusion and cells were re-suspended at 1×10^ 6 cells/mL in RPMI 1640 with 15% Fetal Bovine Serum (FBS), 2 mmol/L L-glutamine, 2 μg/mL PHA-P, 100 U/mL penicillin and 100 μg/mL streptomycin and allowed to incubate for 48-72 hours at 37° C. After incubation, PBMCs were centrifuged and resuspended in tissue culture medium. […]
Following addition of test compound to the wells, 50 μL of a predetermined dilution of HIV virus (prepared from 4× of final desired in-well concentration) was added, and mixed well. […] After 7 days in culture, HIV-1 replication was quantified in the tissue culture supernatant by measurement of reverse transcriptase (RT) activity. […]

HSV-1 = assay: Inhibition of DNA virus replication, HSV-1; type: cell-based; settings: Human alphaherpesvirus 1
VZV = assay: Inhibition of DNA virus replication, VZV; type: cell-based; settings: Human alphaherpesvirus 3
HBV = HBV replication in HepG2.2.15 cells (viral DNA by qPCR); type: cell-based; settings: Hepatitis B virus
Protocol: HepG2.2.15 cells (100 μL) in RPMI1640 medium with 10% fetal bovine serum was added to all wells of a 96-well plate at a density of 1×10^4 cells per well and the plate was incubated at 37° C. in an environment of 5% CO2 for 24 hours. Following incubation, six ten-fold serial dilutions of test compound prepared in RPMI1640 medium with 10% fetal bovine serum were added to individual wells of the plate in triplicate. Six wells in the plate received medium alone as a virus only control. The plate was incubated for 6 days at 37° C. in an environment of 5% CO2. The culture medium was changed on day 3 with medium containing the indicated concentration of each compound. One hundred microliters of supernatant was collected from each well for analysis of viral DNA by qPCR and cytotoxicity was evaluated by XTT staining of the cell culture monolayer on the sixth day.
Ten microliters of cell culture supernatant collected on the sixth day was diluted in qPCR dilution buffer (40 μg/mL sheared salmon sperm DNA) and boiled for 15 minutes. Quantitative real time PCR was performed in […] using an Applied Biosystems 7900HT Sequence Detection System and the supporting SDS 2.4 software. […]

[8] = Cytotoxicity in Huh-7 cells (DNA virus table); type: cell-based; settings: human, Huh-7 cells; beside Adenovirus
Huh-7 Cells = assay: Cytotoxicity in Huh-7 cells (DNA virus table); type: cell-based; settings: beside HSV-1
Adenovirus = assay: Inhibition of DNA virus replication, Adenovirus; type: cell-based; settings: unidentified adenovirus
HCMV = assay: Inhibition of DNA virus replication, HCMV; type: cell-based; settings: Human betaherpesvirus 5
[9] = Cytotoxicity in MRC-5 cells (DNA virus table); type: cell-based; settings: human, MRC-5 cells; beside HCMV
MRC-5 Cells = assay: Cytotoxicity in MRC-5 cells (DNA virus table); type: cell-based; settings: beside VZV
[10] = Cytotoxicity in PBM cells; type: cell-based; settings: human, PHA-P-stimulated peripheral blood mononuclear cells (PBMCs); beside HIV

human DNA polymerase gamma, sequence (P54098 whole entry): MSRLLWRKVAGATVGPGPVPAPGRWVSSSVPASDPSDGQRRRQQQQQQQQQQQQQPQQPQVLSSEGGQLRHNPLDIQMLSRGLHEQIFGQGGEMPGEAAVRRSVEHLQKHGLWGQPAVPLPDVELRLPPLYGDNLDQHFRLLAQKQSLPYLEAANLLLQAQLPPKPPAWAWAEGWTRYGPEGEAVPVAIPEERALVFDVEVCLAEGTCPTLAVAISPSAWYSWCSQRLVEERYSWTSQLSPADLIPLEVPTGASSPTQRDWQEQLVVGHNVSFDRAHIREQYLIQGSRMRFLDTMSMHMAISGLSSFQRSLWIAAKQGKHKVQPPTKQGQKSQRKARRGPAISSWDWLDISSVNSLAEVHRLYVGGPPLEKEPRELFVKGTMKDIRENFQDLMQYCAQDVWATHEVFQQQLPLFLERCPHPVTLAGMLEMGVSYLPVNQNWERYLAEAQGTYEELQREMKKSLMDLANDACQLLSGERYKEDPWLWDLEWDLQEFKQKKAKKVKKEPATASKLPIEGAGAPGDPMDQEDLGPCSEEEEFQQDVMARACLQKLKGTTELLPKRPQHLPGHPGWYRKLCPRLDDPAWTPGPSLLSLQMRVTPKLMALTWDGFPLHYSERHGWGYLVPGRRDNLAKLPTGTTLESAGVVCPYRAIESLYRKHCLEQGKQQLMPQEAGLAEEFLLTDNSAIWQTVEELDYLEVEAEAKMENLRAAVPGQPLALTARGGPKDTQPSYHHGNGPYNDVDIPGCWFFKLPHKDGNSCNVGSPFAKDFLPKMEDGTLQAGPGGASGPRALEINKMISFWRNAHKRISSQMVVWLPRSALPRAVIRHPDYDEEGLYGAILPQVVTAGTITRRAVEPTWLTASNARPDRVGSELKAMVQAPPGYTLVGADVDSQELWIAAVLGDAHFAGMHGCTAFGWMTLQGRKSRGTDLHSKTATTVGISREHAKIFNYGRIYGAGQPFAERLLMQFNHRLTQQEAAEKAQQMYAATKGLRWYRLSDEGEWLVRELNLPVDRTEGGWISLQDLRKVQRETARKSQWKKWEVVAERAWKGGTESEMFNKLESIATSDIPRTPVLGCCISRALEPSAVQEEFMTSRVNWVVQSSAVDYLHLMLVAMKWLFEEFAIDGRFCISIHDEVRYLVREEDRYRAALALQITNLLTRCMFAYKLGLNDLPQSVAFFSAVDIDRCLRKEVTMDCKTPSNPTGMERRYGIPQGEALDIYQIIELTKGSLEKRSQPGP

Work on CC1(O)[C@@H](O)[C@@H](COP(=O)(O)OP(=O)(O)OP(=O)(O)O)O[C@H]1n1ccc(=O)[nH]c1=S (stereo partly drawn) yielded an IC50 [1] of 588 µM, an IC50 [2] of over 1000 µM and an IC50 [3] of over 1000 µM.

Work on CC(C)(C)C(=O)OCOP(=O)(OCOC(=O)C(C)(C)C)OC[C@H]1O[C@@H](n2ccc(=O)[nH]c2=S)[C@](C)(O)[C@@H]1O [EIDD-2523] yielded a CC50 (in vitro) of 31 µM, an EC50 (COXV B3; Huh-7, COXV B3 (printed COXV 83 in the 3rd table), strain HA 201933, Huh7 cells) of 9.3 µM and an EC50 (COXV B3; Huh-7, COXV B3, strain Nancy, Huh7 cells) of 0.38 µM. For the same compound, the EC50 (EV68) was 0.38 µM, the CC50 [4] was 32 µM and the EC50 (EV71; MRC5, EV71, strain H, MRC-5 cells) was 1.71 µM. It also gave an EC50 (EV71; EV71, strain Tainan/4643/98, RD cells) of 5.3 µM, an EC50 (COXV B4) of over 16 µM and an EC50 (COXV A7) of 3.37 µM. The CC50 ([5]; line of EV68 US/KY/14-18953) was 91 µM, the CC50 ([5]; line of EV71 Tainan/4643/98) was 50 µM and the CC50 (Huh7; line of COXV A7 WP Parker) was 30 µM. The CC50 (Huh7; line of COXV A18 G13) was 32 µM, the CC50 (Huh7; line of COXV B1 Conn5) was 31 µM and the CC50 (Huh7; line of COXV B2 Ohio 1) was 34 µM. It also gave a CC50 (Huh7; line of COXV B3 HA 201933) of 46 µM, a CC50 (Huh7; line of COXV B3 Nancy) of 32 µM and a CC50 (Huh7; line of COXV B4 JVB) of 16 µM. It also gave an EC50 (COXV B2) of 2.65 µM, a CC50 (HeLa) of over 100 µM and a CC50 [6] of over 100 µM. For the same compound, the EC50 (HRV; strain 26, HeLa cells) was 0.43 µM, the EC50 (HRV; strain 1059, HeLa cells) was 0.72 µM and the EC50 (COXV A18) was 2.69 µM. The EC50 (COXV B1) was over 31 µM and the EC50 (EV70) was 0.07 µM.

In the case of CN(C)c1ccc(C(=O)O)cc1 [4-Dimethylamino benzoic acid], the EC50 (CV-B3) is given as 9 µM.

With CC(C)OC(=O)[C@H](C)NP(=O)(OC[C@H]1O[C@@H](n2ccc(=O)[nH]c2=S)C(C)(O)[C@H]1O)Oc1ccccc1 (stereo partly drawn) the CC50 [7] was over 100 µM, the EC50 (HIV) was over 100 µM and the EC50 (HSV-1) was over 100 µM. The EC50 (VZV) was over 100 µM, the IC50 (HBV) was over 100 µM and the CC50 [8] was over 100 µM. The CC50 (Huh-7 Cells) was over 100 µM, the IC50 (Adenovirus) was over 100 µM and the EC50 (HCMV) was over 100 µM. For the same compound, the CC50 [9] was over 100 µM, the CC50 (MRC-5 Cells) was over 100 µM and the CC50 at 7 days [10] was over 100 µM.

— patent publication US20250281519A1, “NUCLEOTIDE AND NUCLEOSIDE THERAPEUTIC COMPOSITIONS, COMBINATIONS AND USES RELATED THERETO” (EMORY UNIVERSITY, priority 2021, published 2025)
